Assay results from US11739098B2 (BRISTOL-MYERS SQUIBB COMPANY, priority 2017, dated 2023).

Experiments:
Type in all cases: cell-based
human TLR7 = molecular target: T1, human TLR7 (Homo sapiens, UniProt Q9NYK1); test: TLR7 inhibition reporter assay (HEK-Blue cells, SEAP reporter, gardiquimod stimulation); conditions: HEK-Blue cells overexpressing human TLR7, SEAP reporter, gardiquimod 7.5 μM
T1 construct: host or cells: HEK-Blue cells (HEK293-derived reporter line)
T1 sequence (Q9NYK1 27-1049): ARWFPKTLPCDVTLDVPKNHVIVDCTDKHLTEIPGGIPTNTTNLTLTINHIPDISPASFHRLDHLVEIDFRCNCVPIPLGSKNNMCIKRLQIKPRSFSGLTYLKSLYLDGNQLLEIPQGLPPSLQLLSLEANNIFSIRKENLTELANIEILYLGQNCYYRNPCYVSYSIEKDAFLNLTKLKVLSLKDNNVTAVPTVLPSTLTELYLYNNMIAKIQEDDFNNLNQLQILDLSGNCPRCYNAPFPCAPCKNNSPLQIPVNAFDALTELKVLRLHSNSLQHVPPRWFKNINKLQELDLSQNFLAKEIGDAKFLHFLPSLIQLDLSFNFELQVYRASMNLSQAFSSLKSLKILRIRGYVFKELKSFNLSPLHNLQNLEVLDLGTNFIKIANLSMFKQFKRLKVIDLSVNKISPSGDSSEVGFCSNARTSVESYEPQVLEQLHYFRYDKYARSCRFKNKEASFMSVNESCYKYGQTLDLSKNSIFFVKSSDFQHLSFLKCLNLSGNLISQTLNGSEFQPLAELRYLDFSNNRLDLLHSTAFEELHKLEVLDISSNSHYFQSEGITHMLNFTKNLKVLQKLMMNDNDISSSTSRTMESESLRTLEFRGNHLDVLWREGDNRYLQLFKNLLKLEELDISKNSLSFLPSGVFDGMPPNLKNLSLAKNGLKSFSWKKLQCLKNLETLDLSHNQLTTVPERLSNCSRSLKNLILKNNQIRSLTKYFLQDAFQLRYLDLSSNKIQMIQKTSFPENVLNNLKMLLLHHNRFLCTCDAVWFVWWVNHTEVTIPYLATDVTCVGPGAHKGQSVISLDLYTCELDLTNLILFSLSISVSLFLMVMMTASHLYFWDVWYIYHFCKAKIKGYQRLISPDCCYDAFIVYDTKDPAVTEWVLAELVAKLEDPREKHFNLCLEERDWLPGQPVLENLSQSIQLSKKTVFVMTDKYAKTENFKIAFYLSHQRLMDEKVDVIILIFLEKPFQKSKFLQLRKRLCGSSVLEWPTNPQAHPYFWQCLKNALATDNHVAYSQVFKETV
Summary of the method: (§1)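 Agonists (final): TLR7 gardiquimod 7.5 μM; TLR8 R848 15.9 μM; TLR9 ODN2006 5 nM. HEK-Blue reporter cells, 30 min RT compound pre-incubation, 0.05 nM–50 μM dose range, 22 h at 37 °C, colorimetric SEAP detection medium. % inhibition relative to agonist+DMSO and known-inhibitor wells.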

human TLR8 = molecular target: T2, human TLR8 (Homo sapiens, UniProt Q9NR97); test: TLR8 inhibition reporter assay (HEK-Blue cells, SEAP reporter, R848 stimulation); conditions: HEK-Blue cells overexpressing human TLR8, SEAP reporter, R848 15.9 μM
T2 construct: host or cells: HEK-Blue cells (HEK293-derived reporter line)
T2 sequence (Q9NR97 27-1041): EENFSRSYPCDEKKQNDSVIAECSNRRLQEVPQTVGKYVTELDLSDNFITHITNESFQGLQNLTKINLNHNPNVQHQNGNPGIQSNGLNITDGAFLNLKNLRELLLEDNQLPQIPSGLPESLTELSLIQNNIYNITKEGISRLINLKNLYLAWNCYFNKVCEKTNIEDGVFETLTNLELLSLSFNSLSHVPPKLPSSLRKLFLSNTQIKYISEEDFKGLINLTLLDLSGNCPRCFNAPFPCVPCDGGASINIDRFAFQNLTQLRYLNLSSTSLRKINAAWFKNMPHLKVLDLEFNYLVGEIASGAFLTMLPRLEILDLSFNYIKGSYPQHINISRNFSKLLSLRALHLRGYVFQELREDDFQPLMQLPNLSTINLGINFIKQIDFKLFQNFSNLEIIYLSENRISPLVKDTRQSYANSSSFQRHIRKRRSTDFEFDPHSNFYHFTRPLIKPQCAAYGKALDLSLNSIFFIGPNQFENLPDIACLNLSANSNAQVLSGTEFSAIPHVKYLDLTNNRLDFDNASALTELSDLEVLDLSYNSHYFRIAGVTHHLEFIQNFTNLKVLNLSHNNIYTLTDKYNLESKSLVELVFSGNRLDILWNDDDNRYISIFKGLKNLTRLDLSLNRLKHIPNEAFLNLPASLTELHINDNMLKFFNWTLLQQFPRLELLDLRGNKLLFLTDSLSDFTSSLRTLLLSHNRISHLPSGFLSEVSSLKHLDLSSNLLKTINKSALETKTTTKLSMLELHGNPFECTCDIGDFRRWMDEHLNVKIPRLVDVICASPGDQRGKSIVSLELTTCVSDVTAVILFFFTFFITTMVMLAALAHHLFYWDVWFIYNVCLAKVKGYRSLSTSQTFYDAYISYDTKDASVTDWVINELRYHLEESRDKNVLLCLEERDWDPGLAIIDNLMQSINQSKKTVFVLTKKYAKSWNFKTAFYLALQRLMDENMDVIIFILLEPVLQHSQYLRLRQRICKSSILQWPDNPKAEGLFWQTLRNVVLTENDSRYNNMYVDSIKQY
Summary of the method: as §1

human TLR9 = molecular target: T3, human TLR9 (Homo sapiens, UniProt Q9NR96); test: TLR9 inhibition reporter assay (HEK-Blue cells, SEAP reporter, ODN2006 stimulation); conditions: HEK-Blue cells overexpressing human TLR9, SEAP reporter, ODN2006 5 nM
T3 construct: host or cells: HEK-Blue cells (HEK293-derived reporter line)
T3 sequence (Q9NR96 26-1032): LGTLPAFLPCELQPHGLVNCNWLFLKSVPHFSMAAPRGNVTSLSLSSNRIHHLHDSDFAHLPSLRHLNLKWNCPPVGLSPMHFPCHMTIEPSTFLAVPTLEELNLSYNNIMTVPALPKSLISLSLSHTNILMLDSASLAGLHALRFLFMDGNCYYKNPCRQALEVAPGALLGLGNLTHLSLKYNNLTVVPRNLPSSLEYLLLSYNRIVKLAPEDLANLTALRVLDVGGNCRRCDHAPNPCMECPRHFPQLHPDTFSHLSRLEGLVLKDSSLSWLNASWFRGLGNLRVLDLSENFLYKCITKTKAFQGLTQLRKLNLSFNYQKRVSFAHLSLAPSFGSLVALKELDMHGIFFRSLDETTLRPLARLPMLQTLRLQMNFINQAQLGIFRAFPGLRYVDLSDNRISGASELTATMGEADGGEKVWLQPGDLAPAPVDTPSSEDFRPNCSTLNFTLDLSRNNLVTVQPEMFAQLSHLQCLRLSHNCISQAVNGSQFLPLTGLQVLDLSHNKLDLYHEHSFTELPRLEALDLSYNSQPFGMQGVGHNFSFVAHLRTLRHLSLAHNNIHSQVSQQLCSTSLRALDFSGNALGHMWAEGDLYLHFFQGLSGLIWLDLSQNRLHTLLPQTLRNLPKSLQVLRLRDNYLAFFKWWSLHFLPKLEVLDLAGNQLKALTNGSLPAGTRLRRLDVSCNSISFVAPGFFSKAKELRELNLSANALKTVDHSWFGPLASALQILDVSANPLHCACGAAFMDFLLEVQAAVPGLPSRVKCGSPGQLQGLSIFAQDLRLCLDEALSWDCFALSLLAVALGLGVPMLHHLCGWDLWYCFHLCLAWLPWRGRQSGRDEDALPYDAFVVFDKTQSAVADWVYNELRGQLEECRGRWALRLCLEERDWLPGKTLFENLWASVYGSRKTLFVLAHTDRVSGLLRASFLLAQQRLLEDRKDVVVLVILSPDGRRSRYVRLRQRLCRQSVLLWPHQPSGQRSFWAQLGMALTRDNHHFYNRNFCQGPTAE
Summary of the method: as §1

Row | SMILES | IC50 (human TLR7) | IC50 (human TLR8) | IC50 (human TLR9)
1 | CCCN1CCC(c2ccc3[nH]c(-c4cc(C)c5c(c4)ncn5C)c(C(C)C)c3c2)CC1 [Example 956, 5-(3-isopropyl-5-(1-propylpiperidin-4-yl)-1H-indol-2-yl)-1,7-dimethyl-1H-benzo[d]imidazole] | < 0.1 µM | 0.1 to 1 µM | 0.1 to 1 µM
2 | CC(C)NC(=O)CN1CCC(c2ccc3[nH]c(-c4ccc5nccn5c4)c(C(C)C)c3c2)CC1 [Example 402, 2-(4-(2-(imidazo[1,2-a]pyridin-6-yl)-3-isopropyl-1H-indol-5-yl)piperidin-1-yl)-N-isopropylacetamide] | < 0.1 µM | 0.1 to 1 µM | 1 to 50 µM
3 | Cc1ccnc2c1c(-c1[nH]c3ccc(C4CCN(C5CCOCC5)CC4)cc3c1C(C)C)cn2C [Example 689, 3-(3-isopropyl-5-(1-(tetrahydro-2H-pyran-4-yl)piperidin-4-yl)-1H-indol-2-yl)-1,4-dimethyl-1H-pyrrolo[2,3-b]pyridine] | < 0.1 µM | < 0.1 µM | 1 to 50 µM
4 | Cc1ccnc2[nH]cc(-c3[nH]c4ccc(C5CCNCC5)cc4c3C(C)C)c12 [Example 36, 3-(3-isopropyl-5-(piperidin-4-yl)-1H-indol-2-yl)-4-methyl-1H-pyrrolo[2,3-b]pyridine] | < 0.1 µM | < 0.1 µM | 0.1 to 1 µM
5 | Cc1c(-c2ccnc3cc[nH]c23)[nH]c2ccc(C3CCNCC3)cc12 [Example 23, 7-(3-methyl-5-(piperidin-4-yl)-1H-indol-2-yl)-1H-pyrrolo[3,2-b]pyridine] | < 0.1 µM | < 0.1 µM | 0.1 to 1 µM
6 | Cc1c(-c2[nH]c3ccc(C4CCN(C5CCOCC5)CC4)cc3c2C(C)C)nn2ncnc2c1C [Example 684, 6-(3-isopropyl-5-(1-(tetrahydro-2H-pyran-4-yl)piperidin-4-yl)-1H-indol-2-yl)-7,8-dimethyl-[1,2,4]triazolo[1,5-b]pyridazine] | < 0.1 µM | < 0.1 µM | 1 to 50 µM
7 | CC(C)c1c(-c2cn3cnnc3c(O)n2)[nH]c2ccc(C3CCNCC3)cc12 [Example 34, 6-(3-isopropyl-5-(piperidin-4-yl)-1H-indol-2-yl)-[1,2,4]triazolo[4,3-a]pyrazin-8-ol] | 1 to 50 µM | > 3.13 µM | 1 to 50 µM
8 | CC(C)c1c(-c2cc(C(F)(F)F)c3nccn3c2)[nH]c2ccc(C3CCN(Cc4cnn(C)c4)CC3)cc12 [Example 933, 6-(3-isopropyl-5-(1-((1-methyl-1H-pyrazol-4-yl)methyl)piperidin-4-yl)-1H-indol-2-yl)-8-(trifluoromethyl)imidazo[1,2-a]pyridine] | < 0.1 µM | < 0.1 µM | 0.1 to 1 µM
9 | CCc1c(-c2ccnc3[nH]ncc23)[nH]c2ccc(C3CCN(Cc4cscn4)CC3)cc12 [Example 927, 4-((4-(3-ethyl-2-(1H-pyrazolo[3,4-b]pyridin-4-yl)-1H-indol-5-yl)piperidin-1-yl)methyl)thiazole] | < 0.1 µM | < 0.1 µM | 1 to 50 µM
10 | CC(C)c1c(-c2cc(N)nc3[nH]cnc23)[nH]c2ccc(C3CCNCC3)cc12 [Example 228, 7-(3-isopropyl-5-(piperidin-4-yl)-1H-indol-2-yl)-3H-imidazo[4,5-b]pyridin-5-amine] | < 0.1 µM | < 0.1 µM | 0.1 to 1 µM
11 | CN(C)C(=O)CN1CCC(c2ccc3[nH]c(-c4ccn5ccnc5c4)c(CC(F)F)c3c2)CC1 [Example 445, 2-(4-(3-(2,2-difluoroethyl)-2-(imidazo[1,2-a]pyridin-7-yl)-1H-indol-5-yl)piperidin-1-yl)-N,N-dimethylacetamide] | < 0.1 µM | 0.1 to 1 µM | 1 to 50 µM
12 | Cc1cc(-c2[nH]c3ccc(C4CCN(C(=O)CN(C)C)CC4)cc3c2C(C)C)cc2ccnn12 [Example 570, 2-(dimethylamino)-1-(4-(3-isopropyl-2-(7-methylpyrazolo[1,5-a]pyridin-5-yl)-1H-indol-5-yl)piperidin-1-yl)ethan-1-one] | < 0.1 µM | < 0.1 µM | 1 to 50 µM
13 | CNCCN1CCC(c2ccc3[nH]c(-c4cc5cc(OC)ccc5o4)c(C)c3c2)CC1 [Example 671, 2-(4-(2-(5-methoxybenzofuran-2-yl)-3-methyl-1H-indol-5-yl)piperidin-1-yl)-N-methylethan-1-amine] | > 50 µM | > 3.13 µM | 1 to 50 µM
14 | Cc1cc(-c2[nH]c3ccc(C4CCN(CC#N)CC4)cc3c2C(C)C)cc2cnnn12 [Example 964, 2-(4-(3-isopropyl-2-(7-methyl-[1,2,3]triazolo[1,5-a]pyridin-5-yl)-1H-indol-5-yl)piperidin-1-yl)acetonitrile] | < 0.1 µM | < 0.1 µM | 0.1 to 1 µM
15 | CC(C)c1c(-c2ccc3ncoc3c2)[nH]c2ccc(C3CCN(CC(=O)N(C)C)CC3)cc12 [Example 288, 2-(4-(2-(benzo[d]oxazol-6-yl)-3-isopropyl-1H-indol-5-yl)piperidin-1-yl)-N,N-dimethylacetamide] | < 0.1 µM | < 0.1 µM | 1 to 50 µM
